Measurements from patent publication US20240216395A1, “19-NOR C3,3-DISUBSTITUTED C21 -N-PYRAZOLYL STEROID FOR USE IN TREATING MAJOR DEPRESSIVE DISORDER AND […]” (priority 2021, published 2024).

How the values were obtained:
[1] = system: adult female subjects with severe postpartum depression (PPD); test: Phase 3 placebo-controlled study of Compound (1) 30 mg QD for 14 days in PPD (NCT02978326, ROBIN): efficacy and post hoc analyses; type: in vivo, human
Method: Example 4. A Multicenter, Randomized, Double-Blind, Parallel-Group, Placebo-Controlled Study Evaluating the Efficacy, Safety, and Pharmacokinetics of Compound (1) in the Treatment of Adult Female Subjects with Severe Postpartum Depression
This was a multicenter, randomized, double-blind, parallel-group, placebo-controlled study of the efficacy, safety, and pharmacokinetics of Compound (1) in adult subjects diagnosed with severe PPD.
Randomized subjects received 30 mg QD of study drug (Compound (1) Capsules or placebo). Those subjects who could not tolerate 30 mg QD will received 20 mg QD for the remainder of the Treatment Period. Subjects who experienced intolerable adverse events (AEs) at the 20 mg QD dose level could be discontinued from study treatment at the discretion of the Investigator. Subjects were instructed to take the study drug with food. Study drug was self-administered by subjects in the evening (8:00 pm±30 min) on an outpatient basis for the entire 14-day Treatment Period. Study drug administration was monitored via a follow-up call from the site each evening (within approximately 1 hour following the scheduled evening dose) on Days 1 to 14.
The primary efficacy endpoint was the change from baseline in HAM-D total score at the end of the Treatment Period (Day 15). The HAM-D total score was calculated as the sum of the 17 individual item scores.
Secondary endpoints included: • Change from baseline in the HAM-D total score at all time points other than Day 15; • HAM-D Response defined as a 50% or greater reduction from baseline in HAM-D total score; • HAM-D Remission defined as a HAM-D total score of ≤7; • Change from baseline in MADRS total score at Day 15 and other time points; • CGI-I Response defined as “very much improved” or “much improved”; • Change from baseline in HAM-A total score at Day 15 and other time points; • Changes from baseline in HAM-D subscales and individual item scores at Day 15 and other time points
The change from baseline in HAM-D total score was analyzed using a mixed effects model for repeated measures (MMRM); the model included center, treatment, baseline HAM-D total score, assessment time point, and time point-by-treatment as explanatory variables. All post-baseline time points were included in the model. The primary comparison was between Compound (1) and placebo at the 15-day time point. Model-based point estimates (e.g., least squares [LS] means), 95% confidence intervals, and p-values were reported. An unstructured covariance structure was used to model the within-subject errors. Continuous secondary and other variables were analyzed using similar methods.
Binary efficacy endpoints, including responder and remission endpoints, were summarized and analyzed using the generalized estimating equation method.
As indicated in Example 4, women (N=151), ages 18-45, ≤6 months postpartum, diagnosed with PPD (defined as a major depressive episode with onset in the 3rd trimester or ≤4 weeks postpartum), and a baseline HAMD-17 total score ≥26, were randomized to study drug in an outpatient setting.
Patients were randomized 1:1 to receive oral Compound (1) 30 mg or placebo once daily for 14 days, with 4 weeks follow-up. The change from baseline (CFB) vs placebo in HAMD-17 at Day 15 was the primary endpoint. Treatment emergent adverse events (TEAEs) were assessed throughout the study.
Post hoc analyses explored concurrent anxiety and depression improvement using a combination of scales at Days 15 and 45: (1) HAMD-17≤7+HAM-A≤7, or (2) MADRS ≤10+HAM-A≤7. Depression improvement was defined as either a HAMD-17 total score ≤7, or a MADRS total score […]. Improvement in anxiety symptoms was defined as a HAM-A total score ≤7.
CFB in HAMD-17 total score was evaluated using the least-squares mean from a mixed effect model for repeated measures. […]

[2] = system: adult female subjects with severe postpartum depression (PPD); test: Phase 3 PPD study (NCT02978326): safety, TEAEs and NNH; type: in vivo, human
Method: Safety Endpoints: Safety and tolerability of study drug was evaluated by frequency of adverse events; severity, relatedness, and seriousness of adverse events; clinical laboratory measures, vital signs, ECGs; and concomitant medication usage. Suicidality was monitored using the C-SSRS.
Adverse events were coded using Medical Dictionary for Regulatory Activities (MedDRA™) Version 19.1 or higher. […] The incidence of adverse events was also presented by maximum severity and relationship to study drug. Vital signs, clinical laboratory measures, ECG, concomitant medication usage, and C-SSRS data was summarized by treatment, where applicable. Out-of-range safety endpoints could be categorized as low or high, where applicable. Safety data was summarized and examined for possible relationships between subject characteristics and plasma Compound (1) concentrations, as appropriate. Suicidality data collected using the C-SSRS at baseline and at each visit during the active Treatment Period was listed for all subjects. The C-SSRS listings included behavior type and/or category for suicidal ideation and suicidal behavior of the C-SSRS.
Sustained Response or Remission was defined as continued categorization of a Responder/Remitter at both days 15 and 45. Tolerability and safety outcomes included number needed to harm (NNH) for discontinuation due to an AE, as well as individual safety events of interest. NNH was calculated for (1) AEs with incidence ≥2% with Compound (1) and higher rate than placebo, and (2) the proportion of patients in each treatment arm discontinuing the study drug due to an AE. 95% confidence intervals (CIs) were calculated based upon Wilson score intervals.

## C[C@@]1(O)CC[C@H]2[C@H](CC[C@@H]3[C@@H]2CC[C@]2(C)[C@@H](C(=O)Cn4cc(C#N)cn4)CC[C@@H]32)C1 [Compound (1), 1-(2-((3R,5R,8R,9R,10S,13S,14S,17S)-3-hydroxy-3,13-dimethylhexadecahydro-1H-cyclopenta[a]phenanthren-17-yl)-2-oxoethyl)-1H-pyrazole-4-carbonitrile]
[1]
  HAMD-17 early insomnia item mean reduction from baseline: −1.3
  HAMD-17 late insomnia item mean reduction from baseline: −1.3
  HAMD-17 middle insomnia item mean reduction from baseline: −1.3
[1]; Day 8
  EPDS-3A least square mean CFB: −2.2
[1]; Day 15
  Concurrent improvement HAMD-17 ≤ 7 and HAM-A ≤ 7, OR (95% CI) vs placebo: 2.75 (1.30, 5.84)
  Concurrent improvement MADRS ≤ 10 and HAM-A ≤ 7, OR (95% CI) vs placebo: 2.35 (1.15, 4.80)
  LS mean difference vs placebo (as printed after HAMD-17 CFB): −2.4
  MADRS Remission rate: 54.1%
  MADRS Response rate: 73.0%
[1]; Day 15 (primary endpoint)
  HAMD-17 total score CFB: −17.8
[1]; Day 45
  Concurrent improvement HAMD-17 ≤ 7 and HAM-A ≤ 7, OR (95% CI) vs placebo: 3.45 (1.66, 7.16)
  Concurrent improvement MADRS ≤ 10 and HAM-A ≤ 7, OR (95% CI) vs placebo: 3.09 (1.50, 6.36)
  EPDS-3A least square mean CFB: −3.6
[1]; day 3
  HAM-A Remission rate: 27.0%
  HAMD-17-Ins CFB, Compound (1)-placebo difference: −0.841
  HAMD-17 A/S least squares mean CFB: −3.8
[1]; day 8
  HAM-A Response rate: 69.3%
[1]; day 15
  EPDS remission (<13) rate: 64%
  HAMD-17 A/S Response rate: 68.9%
  HAMD-17 Remission rate: 45%
  HAMD-17 Response rate: 72%
  NNT for EPDS remission <13: 6
  NNT, rapid outcomes: 5
[1]; day 45
  HAMD-17 A/S least squares mean CFB: −5.7
  NNT, sustained outcomes: 5
  PHQ-9 total score least squares mean decrease: −11.8
  SF-36v2 domains (SF, MH, PF, RP, BP) and MCS vs placebo: statistically significant improvements
[1]; days 15 and 45
  Sustained HAMD-17 Remission rate: 37%
  Sustained HAMD-17 Response rate: 59%
[2]; 30 mg
  Loss of consciousness or syncope: no reports of loss of consciousness or syncope
  NNH vs placebo: AE leading to treatment discontinuation: 78 (ns)
  NNH vs placebo: Diarrhoea: 28 (ns)
  NNH vs placebo: Dizziness: 46 (ns)
  NNH vs placebo: Dry mouth (Gastrointestinal disorders): 26 (ns)
  NNH vs placebo: Dry mouth (under Infections and infestations): 41 (ns)
  NNH vs placebo: Fatigue: 41 (ns)
  NNH vs placebo: Pain in extremity: 84 (ns)
  NNH vs placebo: Sedation: 20 (ns)
  NNH vs placebo: Somnolence: 23 (ns)
  NNH vs placebo: Upper respiratory tract infection: 16 (ns)
  Overall tolerability: generally well tolerated
[2]; 30 mg (N = 78)
  Diarrhoea: 5 (6.4%) n (%)
  Dizziness: 6 (7.7%) n (%)
  Dry mouth (Gastrointestinal disorders): 3 (3.8%) n (%)
  Dry mouth (listed under Infections and infestations): 3 (3.8%) n (%)
  Fatigue: 3 (3.8%) n (%)
  Pain in extremity: 2 (2.6%) n (%)
  Sedation: 4 (5.1%) n (%)
  Somnolence: 12 (15.4%) n (%)
  Subjects with an AE leading to treatment discontinuation: 1 (1.3%) n (%)
  Upper respiratory tract infection: 6 (7.7%) n (%)
[2]; clinical trial of Example 4
  Patients with a TEAE whose TEAEs were mild and moderate in severity: 94%
